From PMC7824033, “Flavones, Flavonols, and Glycosylated Derivatives—Impact on Candida albicans Growth and Virulence, Expression of CDR1 and ERG11, Cytotoxicity” (Pharmaceuticals, 2020)
≈ marks a conversion by molar mass, not a printed value. Entries after “also recorded” stand apart in the source; their conditions may differ. Where two headings read alike, the source gives them in different places.

Columns and labels:
[1] = system: C. albicans 475/15 biofilm formation; test: Inhibition of biofilm formation (crystal violet); type: cell-based, Candida albicans
Method: Potential of selected compounds to interfere with C. albicans 475/15 biofilm formation was investigated as previously described. Briefly, C. albicans 475/15 was incubated with serial dilution of the compounds (MIC and subMICs) in YPD medium, in 96-well microtiter plates with adhesive bottom (Sarstedt, Nümbrecht, Germany), at 37 °C for 24 h. After incubation, wells were washed twice with sterile PBS and methanol was added into each well. After fixation, methanol was discarded, and the plate was air dried. Formed biofilms were stained with 0.1% crystal violet (Bio-Merieux, Craponne, France) for 30 min. The plate was gently washed under the tap of water and air dried. The stain bound to the remaining biofilms was dissolved with ethanol (96%, Zorka, Šabac, Serbia). Absorbance was read on a Multiskan™ FC Microplate Photometer, Thermo Scientific™. The percentage of inhibition of biofilm formation was calculated by the formula:[(A620control − A620sample)/A620control] × 100

[2] = system: ERG11; test: Expression of ERG11 (qPCR); type: cell-based, Candida albicans; settings: treatment with MIC
Method: (§1) Total RNA was isolated as described by Sanglard et al. with some modifications. C. albicans 475/15 was grown with agitation at 30 °C in YEPD until OD540 = 0.4. C. albicans cells were incubated with MIC of compounds in YEPD at 30 °C with agitation for 30 min. Cells were centrifuged (4600 rpm, 4 °C for 5 min (Rotanata 460 R, Hettich, Tuttlingen, Germany)) and the pellet was resuspended in 300 µL of RNA buffer (0.1 M Tris-HCl pH 7.5, 0.1M LiCl, 10mM EDTA, 0.5% SDS). The pellet was homogenized with 200 µL of DEPC treated glass beads and 300 µL of Phenol:Chloroform:Isoamyl Alcohol (Sigma-Aldrich, Darmstadt, Germany) in Precellys Evolution tissue homogenizer (Bertion instruments, Montigny-le-Bretonneux, France) at 4500 rpm for 5 s. After centrifugation (14,000 rpm, 4 °C, 1 min (Universal 32 R, Hettich, Tuttlingen, Germany)) 200 µL of supernatant was vortexed with 250 µL of Phenol:Chloroform:Isoamyl Alcohol for 10 s. Samples were centrifuged (14,000 rpm, 4 °C, 1 min) and 200 µL of supernatant was transferred to new tubes, 400 µL of ice-cold 99% ethanol was added to each tube, and they were kept on dry ice for 10 min. Samples were centrifuged (14,000 rpm, 4 °C, 2 min), pellet was washed with ethanol (70%), left to dry at room temperature, after which it was dissolved in 50 µL of DEPC treated water. Nanodrop (ND-1000, Witec AG, Sursee, Switzerland) was used for determination of concentration and purity of samples. RNA was stored at −80°C.
(§2) Amount of 10 µg RNA was incubated with 5 µL of DNAse buffer and 1 µL of DNAse at 37 °C for 30 min (DNA-free™ DNA Removal Kit, Ambion, Bleiswijk, Netherlands). After addition of DNAse inactivation reagent tubes were kept at room temperature with occasional vortexing for 5 min. Samples were centrifuged (14,000 rpm, 4°C, 2 min) and the concentration and quality of supernatant were analyzed on Nanodrop (ND-1000, Witec AG, Sursee, Switzerland).
(§3) Synthesis of cDNA was done with a Transcriptor High Fidelity cDNA synthesis kit (Roche). RNA (1 µg) was incubated with 60 µM random hexamer primers, in 11.4 µL of total sample volume, at 65 °C for 10 min. The mixture of Transcriptase reaction buffer 5×, Deoxynucleotide mix, DTT, Protector RNAse inhibitor, and Transcriptor High Fidelity Reverse Transcriptase was added to each tube according to manufacturer instructions. Synthesis of cDNA was completed by incubating the mixture at 50 °C for 30 min and 85 °C for 5 min (Peqstar thermocycler, Peqlab, Erlangen, Germany).
(§4) Wells of MicroAmp Fast 96-Well Reaction plate ((0.1 mL), Applied biosystems, Waltham, MA, USA) were incubated with 10 µL of mixture (cDNA, 2× MasterMix, primers, probe (Table 3), and water). Analysis was performed in StepOnePlus Real Time PCR system with relative standard curve method. Expression levels of CDR1 and ERG11 were normalized to expression of ACT1.

[3] = system: non-tumor colon cell (IEC-18); parameters: method as in PMID 25359775; settings: up to 150 μM; cited from earlier work
[4] = system: C. albicans morphological transition; settings: cited from earlier work
[5] = system: ALS1, ALS3, HWP1, SUN41; settings: ref 18; cited from earlier work
[6] = system: CDR1; test: Expression of CDR1 (qPCR); type: cell-based, Candida albicans; settings: treatment with MIC
Method: as §1, §2, §3, §4

[7] = system: S. aureus efflux; parameters: method as in PMID 25961825; settings: S. aureus; cited from earlier work
[8] = system: HUVE (human umbilical vein endothelial) cells; settings: read-out: LC50; cited from earlier work

SMILES	antibiofilm activity ([1]; MIC and subMICs)	inhibition of biofilm formation ([1]; compound applied at MIC)	inhibition of biofilm formation ([1]; compound applied at MIC/2)	impact on ERG11 expression (words) [2]	ERG11 expression level, Log2FC ([2]; 30 min, normalized to ACT1)	impact on ERG11 expression (words) ([2]; listed as isoquercitrin)	cytotoxic effects [3]	concentration leading to reduction of morphological transition ([4]; ref 18)	concentration leading to reduction of morphological transition ([4]; ref 28)	ALS1, ALS3, HWP1 and SUN41 expression levels [5]	impact on CDR1 expression [6]	IC50, efflux inhibition [7]	CC50 [8]
O=c1c(O[C@@H]2O[C@H](CO)[C@@H](O)[C@H](O)[C@H]2O)c(-c2ccc(O)c(O)c2)oc2cc(O)cc(O)c12 [Isoquercitrin, isoquercitrin]	excellent activity; also recorded: notably lowered	76%	> 60%	increased expression levels	> 1 Log2FC	upregulated; also recorded: increased ERG11 expression	did not show cytotoxic effects						
O=c1c(O)c(-c2ccc(O)c(O)c2)oc2cc(O)cc(O)c12 [Quercetin, quercetin]								64 µg/mL	up to 200 µg/mL	reduced	did not exhibit any significant inhibitory potential	75 µg/mL (≈ 248 µM)	61 µM
